Test [1] deals with T1, DGKα (hDGKalpha(1-735)-N-His) (Homo sapiens, UniProt P23743).
T1 construct: hDGKalpha(1-735)-N-His; His (N); made in house; host or cells: Sf21 insect cells (baculovirus)
The test can be described thus: In vitro DGK inhibition assay, DGKalpha ADP Glo (in house). It counts as biochemical. The following applies: 4 nM DGKα, 25 μM ATP, 125 uM DLG in liposomes, 1 hour reaction. The method in brief: (§1)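 Full-length His-tagged human DGKα (4 nM) or DGKζ (2 nM), expressed in Sf21 cells, phosphorylated 125 µM DLG in PS/PC liposomes with ATP at 25 µM (α) or 50 µM (ζ) for 1 h. ADP was measured by ADP-Glo luminescence. Compounds were tested as 11-point 1:3 series in 2% DMSO.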
In general terms: In ADP-Glo the light output rises with the ADP produced.

The target of test [2] is T2, DGKζ (hDGKzeta(1-928)-N-His) (Homo sapiens, UniProt Q13574).
T2 construct: hDGKzeta(1-928)-N-His; His (N); made in house; host or cells: Sf21 insect cells (baculovirus)
The test can be described thus: In vitro DGK inhibition assay, DGKzeta ADP Glo (in house). It is filed as biochemical. The following applies: 2 nM DGKζ, 50 μM ATP, 125 uM DLG in liposomes, 1 hour reaction. The method in brief:
as §1

The subject of another test is MV-3 cells. Briefly: T-cell - TCB - MV3 killing assay. It is filed as cell-based, human. The following applies: for Emax: Homo sapiens, MV-3, 120 h, % TCL normalized: MCSP-TCB only = neutral control, 20 μM reference compound A1 = 100%, read-out: MSCP TCB killing MV-3 cells 5 d Emax (%); for EC50: primary human T-cells + MV-3 RFP cells, MCSP-TCB 1.5 pM-5 pM, 120 hours imaging, read-out: MSCP TCB killing MV-3 cells 5 d EC50. Here is the method:
All culturing steps are executed at 5% CO2, 37° C. and 95% humidity. MV-3 RFP cells are cultured in MV-3 medium (DMEM+10% FBS, 1× PenStrep and 0.5 μg/mL Puromycin) for at least 3 weeks. Cultured MV-3 cells at 80% confluency are washed once with PBS−− and trypsinized until detached. […] Cells are seeded with 100 μL/well into a 96-well plate (TTP, #92696), and placed for 40 minutes without moving at room temperature in order to achieve evenly distributed attachment of cells. Plates are then incubated until further use.
On the next day, expanded primary human T-cells are thawed and resuspended in T-cell medium to 4*10^6 cells/mL. For 3 hours, they are cultured in a 6-well plate with 6 mL per well at maximum. After culturing the T-cells, they are filtered through a cell strainer (Miltenyi Biotech, #130-041-407), counted again, and cell concentration is adjusted to 2*10^6 cells/mL.
MCSP-TCB or PBS are pre-diluted in T-cell medium (concentration depending on T-cell donor), 4 times more concentrated than the end-concentration. 60 μL/well of pre-dilutions are then distributed into a round bottom plate (Costar, #3799) according to plate layout. Compounds are added in a 9 pt dose response with the Tecan D300e Digital Dispenser, as well 4 times more concentrated than the end-concentration. DMSO concentration of all wells is adjusted to 0.8%, resulting in 0.2% as final concentration.
60 μL per well of T-cell suspension are added to the prepared round bottom plate and resuspended with a manual multichannel. 100 μL/well of the resuspended T-cell suspension including treatments are then transferred cautiously to the over-night cultured MV-3 cells according to plate layout. 100 μL T-cell medium only is added to the outer MV-3 wells only. Final compound DR is starting at 20 μM with a dilution factor of 3.333. Final TCB concentration is between 1.5 pM to 5 pM and was determined for each T-cell donor individually by running TCB titrations. For each donor, a TCB concentration was chosen which corresponds to 10-20% MV3 baseline cell killing in the absence of compound treatment. Positive control is the reference compound A1 which is added in a DR, as well as additional wells with only 20 μM. 20 μM of reference compound A1 represent the positive stimulator control, TCB only (DMSO wells) the neutral control.
After transfer of T-cells with treatment pre-dilutions, MV-3 cells are imaged by time-lapse microscopy using IncucyteZOOM™ (Essen BioScience, MI, USA). Imaging is performed every 3 hours for a total of 120 hours (10× objective, phase and red image channels, acquisition time 400 ms, Green/Red 4614 optical module). RFP object count per well is analysed in the IncucyteZOOM™ Software (Version 2019B Rev2) with a mask that was previously created and optimized for MV-3 cells. Raw data is exported as object count/well and values are normalized as % TCL compared to wells with MV-3 only, representing 100% growth and therefore 0% TCL.
Calculated % TCL values are analysed in Genedata Screener using Roche Normalization PCT_POS_CTRL with MCSP-TCB only set as Neutral Control and 20 μM of the reference compound A1 set as Stimulator Control/100%.
Induced TCL by compounds without TCB treatment or toxicity (observed in the PBS condition) were be flagged.

T1 sequence (P23743 whole entry): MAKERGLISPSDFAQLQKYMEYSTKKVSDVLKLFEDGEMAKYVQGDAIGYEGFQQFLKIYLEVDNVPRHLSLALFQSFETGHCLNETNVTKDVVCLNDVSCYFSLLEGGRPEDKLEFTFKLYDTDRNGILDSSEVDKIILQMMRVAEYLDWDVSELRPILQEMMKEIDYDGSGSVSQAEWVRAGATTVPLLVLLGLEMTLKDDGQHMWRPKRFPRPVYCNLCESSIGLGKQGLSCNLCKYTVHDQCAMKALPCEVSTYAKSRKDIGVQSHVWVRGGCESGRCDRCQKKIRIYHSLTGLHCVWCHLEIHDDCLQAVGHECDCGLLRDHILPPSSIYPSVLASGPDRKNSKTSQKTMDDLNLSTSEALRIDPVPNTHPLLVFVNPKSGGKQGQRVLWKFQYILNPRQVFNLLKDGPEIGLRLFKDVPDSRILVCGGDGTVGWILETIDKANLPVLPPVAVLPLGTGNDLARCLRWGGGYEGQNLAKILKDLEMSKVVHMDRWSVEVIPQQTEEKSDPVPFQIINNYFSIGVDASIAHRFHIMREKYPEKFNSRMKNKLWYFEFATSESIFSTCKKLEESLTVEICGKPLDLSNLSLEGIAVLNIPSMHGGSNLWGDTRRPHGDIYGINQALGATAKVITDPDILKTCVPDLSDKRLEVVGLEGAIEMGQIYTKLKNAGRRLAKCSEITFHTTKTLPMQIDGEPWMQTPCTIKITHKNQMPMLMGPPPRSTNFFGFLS
T2 sequence (Q13574 whole entry): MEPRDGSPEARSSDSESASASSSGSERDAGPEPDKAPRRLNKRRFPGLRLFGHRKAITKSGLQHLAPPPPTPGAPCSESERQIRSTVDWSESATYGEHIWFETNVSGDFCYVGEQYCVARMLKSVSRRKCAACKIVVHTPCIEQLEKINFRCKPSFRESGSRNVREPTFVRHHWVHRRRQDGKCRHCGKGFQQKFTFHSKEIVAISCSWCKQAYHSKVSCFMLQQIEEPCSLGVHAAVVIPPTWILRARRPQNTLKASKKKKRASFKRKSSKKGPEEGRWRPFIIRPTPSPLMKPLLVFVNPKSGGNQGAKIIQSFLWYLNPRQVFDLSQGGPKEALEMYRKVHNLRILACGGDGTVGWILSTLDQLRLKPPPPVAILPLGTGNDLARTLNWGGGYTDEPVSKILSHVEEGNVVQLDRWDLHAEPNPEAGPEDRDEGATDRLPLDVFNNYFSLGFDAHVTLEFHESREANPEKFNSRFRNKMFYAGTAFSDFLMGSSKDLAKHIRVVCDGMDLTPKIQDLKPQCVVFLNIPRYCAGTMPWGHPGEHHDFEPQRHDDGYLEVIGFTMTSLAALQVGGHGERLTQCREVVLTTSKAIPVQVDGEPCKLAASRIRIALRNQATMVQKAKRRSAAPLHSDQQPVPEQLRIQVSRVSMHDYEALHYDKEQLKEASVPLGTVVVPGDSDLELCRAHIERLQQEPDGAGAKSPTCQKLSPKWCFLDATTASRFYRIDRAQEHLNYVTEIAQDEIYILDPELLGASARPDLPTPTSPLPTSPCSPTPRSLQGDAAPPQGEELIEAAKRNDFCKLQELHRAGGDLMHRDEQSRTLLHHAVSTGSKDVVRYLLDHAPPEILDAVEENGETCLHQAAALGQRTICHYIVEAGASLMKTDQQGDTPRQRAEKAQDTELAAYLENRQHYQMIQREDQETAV

Broadly, the IC50 is the concentration needed to halve the response being measured. A higher IC50 goes with weaker potency. The Emax is the size of the effect at its maximum, as opposed to the concentration needed. For orientation: EC50 means the concentration needed to bring the measured effect to its halfway point. Compound `N[C@H]1CS(=O)(=O)c2cc(F)c(-c3noc(C4(CO)CCCO4)n3)cc2N(Cc2ccc(-c3noc(C(F)(F)F)n3)cc2)C1=O` (stereo partly drawn) [Example 18, (3R)-3-amino-8-fluoro-7-[5-[2-(hydroxymethyl)tetrahydrofuran-2-yl]-1,2,4-oxadiazol-3-yl]-1,1-dioxo-5-[[4-[5-(trifluoromethyl)-1,2,4-oxadiazol-3-yl]phenyl]methyl]-2,3-dihydro-1λ^6,5-benzothiazepin-4-one] registered an IC50 in test [1] of 3870 nM. This compound registered an IC50 in test [2] of 151 nM. In addition, in the test with MV-3 cells, the Emax came out at 67% and the EC50 worked out at 29 nM.
Turning to `N[C@H]1CS(=O)(=O)c2ccc(-c3nnc(C4(CO)CCCO4)o3)cc2N(Cc2ccc(-c3noc(C(F)(F)F)n3)cc2)C1=O` (stereo partly drawn) [Example 54, (3R)-3-amino-7-[5-[2-(hydroxymethyl)tetrahydrofuran-2-yl]-1,3,4-oxadiazol-2-yl]-1,1-dioxo-5-[[4-[5-(trifluoromethyl)-1,2,4-oxadiazol-3-yl]phenyl]methyl]-2,3-dihydro-1λ^6,5-benzothiazepin-4-one], the IC50 in test [1] was 12600 nM; in test [2], 1380 nM. For the same compound, the Emax in the test on MV-3 cells was 86%. Further, in the test with MV-3 cells, the EC50 was 246 nM.
On the same counts, the results for `N[C@H]1CS(=O)(=O)c2ccc(-c3nnc(N4CCOC(F)(F)C4)o3)cc2N(Cc2ccc(-c3nnc(C(F)(F)F)o3)cc2)C1=O` [Example 80] are 11800 nM, 1260 nM, 86% and 257 nM.
On the same counts, the results for `Cn1nc(C(F)(F)F)cc1-c1ccc(CN2C(=O)[C@@H](N)CS(=O)(=O)c3ccc(-c4nnc(C(C)(C)C)o4)cc32)cc1` [Example 92] are 17500 nM, 1710 nM, 99% and 120 nM.
For the compound `COC(F)(c1nnc(-c2ccc3c(c2)N(Cc2ccc(-c4noc(C(F)(F)F)n4)cc2)C(=O)[C@@H](N)CS3(=O)=O)o1)C(F)(F)F` (stereo partly drawn) [Example 37, (3R)-3-amino-1,1-dioxo-7-[5-(1,2,2,2-tetrafluoro-1-methoxy-ethyl)-1,3,4-oxadiazol-2-yl]-5-[[4-[5-(trifluoromethyl)-1,2,4-oxadiazol-3-yl]phenyl]methyl]-2,3-dihydro-1λ^6,5-benzothiazepin-4-one], the IC50 in test [1] was 2000 nM; in test [2], 8830 nM. In the test with MV-3 cells, the Emax stood at 133%. The EC50 in the test with MV-3 cells is 58 nM.
Turning to `CC(C)(C#N)c1nnc(-c2ccc3c(c2)N(Cc2ccc(-c4ccc(OC(F)F)cn4)cc2)C(=O)[C@@H](N)CS3(=O)=O)o1` [Example 108, 2-[5-[(3R)-3-amino-5-[[4-[5-(difluoromethoxy)-2-pyridyl]phenyl]methyl]-1,1,4-trioxo-2,3-dihydro-1λ^6,5-benzothiazepin-7-yl]-1,3,4-oxadiazol-2-yl]-2-methyl-propanenitrile], the IC50 turned out to be 1390 nM in test [1] and 939 nM in test [2].
As for `CCC(O)(c1nnc(-c2ccc3c(c2)N(Cc2ccc(-c4noc(C(F)(F)F)n4)cc2)C(=O)[C@@H](N)CS3(=O)=O)o1)C(F)(F)F` (stereo partly drawn) [Example 95], the IC50 amounted to 19000 nM in test [1] and 2420 nM in test [2].
For `CC(C)(C#N)c1nnc(-c2ccc3c(c2)N(Cc2ccc(-c4ccc(C5CC5)cn4)cc2)C(=O)[C@@H](N)CS3(=O)=O)o1` [Example 118, 2-[5-[(3R)-3-amino-5-[[4-(5-cyclopropyl-2-pyridyl)phenyl]methyl]-1,1,4-trioxo-2,3-dihydro-1λ^6,5-benzothiazepin-7-yl]-1,3,4-oxadiazol-2-yl]-2-methyl-propanenitrile], the IC50 in test [1] came out at 16400 nM; in test [2], 814 nM.
In the case of `N[C@H]1CS(=O)(=O)c2ccc(-c3nnc(C4(N)CCCCC4)o3)cc2N(Cc2ccc(-c3ccc(C(F)(F)F)cn3)cc2)C1=O` [Example 41, (3R)-3-amino-7-[5-(1-aminocyclohexyl)-1,3,4-oxadiazol-2-yl]-1,1-dioxo-5-[[4-[5-(trifluoromethyl)-2-pyridyl]phenyl]methyl]-2,3-dihydro-1λ^6,5-benzothiazepin-4-one], the values for the IC50 in test [1] and in test [2] were 30600 nM and 3240 nM, respectively.
Taken in the same sequence, the figures for `CC(C)(C#N)c1nnc(-c2ccc3c(c2)N(Cc2ccc(-c4cnn(C(F)(F)F)c4)cc2)C(=O)[C@@H](N)CS3(=O)=O)o1` [Example 115, 2-[5-[(3R)-3-amino-1,1,4-trioxo-5-[[4-[1-(trifluoromethyl)pyrazol-4-yl]phenyl]methyl]-2,3-dihydro-1λ^6,5-benzothiazepin-7-yl]-1,3,4-oxadiazol-2-yl]-2-methyl-propanenitrile] were 585 nM and 803 nM.
`N[C@H]1CS(=O)(=O)c2ccc(-c3nnc(N4CCC(F)(F)CC4)o3)cc2N(Cc2ccc(-n3ccc(C(F)(F)F)n3)cc2)C1=O` [Example 162, (3R)-3-amino-7-[5-(4,4-difluoro-1-piperidyl)-1,3,4-oxadiazol-2-yl]-1,1-dioxo-5-[[4-[3-(trifluoromethyl)pyrazol-1-yl]phenyl]methyl]-2,3-dihydro-1λ^6,5-benzothiazepin-4-one] yielded an IC50 in test [1] of over 62500 nM. Besides, half-maximal inhibition in test [2] (IC50) required 1100 nM. In the test on MV-3 cells, the Emax was determined as 100% and the EC50 was 168 nM.
With `CC(C)(C#N)c1nnc(-c2ccc3c(c2)N(Cc2ccc(-c4ncc(C(F)(F)F)o4)cc2)C(=O)[C@@H](N)CS3(=O)=O)o1` [Example 105, 2-[5-[(3R)-3-amino-1,1,4-trioxo-5-[[4-[5-(trifluoromethyl)oxazol-2-yl]phenyl]methyl]-2,3-dihydro-1λ^6,5-benzothiazepin-7-yl]-1,3,4-oxadiazol-2-yl]-2-methyl-propanenitrile], the IC50 in test [1] was 694 nM; in test [2], 787 nM.
On the same counts, the results for `N[C@H]1CS(=O)(=O)c2ccc(-c3nnc(N4CCC(F)(F)CC4)o3)cc2N(Cc2ccc(-c3noc(C(F)(F)F)n3)cc2)C1=O` [Example 68, (3R)-3-amino-7-[5-(4,4-difluoro-1-piperidyl)-1,3,4-oxadiazol-2-yl]-1,1-dioxo-5-[[4-[5-(trifluoromethyl)-1,2,4-oxadiazol-3-yl]phenyl]methyl]-2,3-dihydro-1λ^6,5-benzothiazepin-4-one] are 2640 nM and 625 nM.
On the same counts, the results for `N[C@H]1CS(=O)(=O)c2cc(F)c(-c3nnc(N4CCC(F)(F)CC4)o3)cc2N(Cc2ccc(-c3noc(C(F)(F)F)n3)cc2)C1=O` [Example 5, (3R)-3-amino-7-[5-(4,4-difluoro-1-piperidyl)-1,3,4-oxadiazol-2-yl]-8-fluoro-1,1-dioxo-5-[[4-[5-(trifluoromethyl)-1,2,4-oxadiazol-3-yl]phenyl]methyl]-2,3-dihydro-1λ^6,5-benzothiazepin-4-one] are 635 nM and 68 nM.
Taken in the same sequence, the figures for `CN1CCCC(F)(c2nnc(-c3ccc4c(c3)N(Cc3ccc(-c5ccc(C(F)(F)F)cn5)cc3)C(=O)[C@@H](N)CS4(=O)=O)o2)C1` (stereo partly drawn) [Example 51, (3R)-3-amino-7-[5-(3-fluoro-1-methyl-3-piperidyl)-1,3,4-oxadiazol-2-yl]-1,1-dioxo-5-[[4-[5-(trifluoromethyl)-2-pyridyl]phenyl]methyl]-2,3-dihydro-1λ^6,5-benzothiazepin-4-one] were 6260 nM and 1800 nM.

For the origin of these results see patent US20260138976A1 (Hoffmann-La Roche Inc., priority 2022, published 2026).
